Assay results taken from patent publication US4536402A, “Vinylogous carboxamides” (Dr. Karl Thomae Gesellschaft mit beschranter Haftung, priority 1982, dated 1985).
Where two headings read alike, the source gives them in different places. Values belong to the compound of their own block, whether it stands above or below them.

Tests used:
[1] = test system: tonic extensor spasm in the back legs of male mice subjected to maximum electric shock; assay: Anticonvulsant activity in mice: inhibition of tonic extensor spasm after maximum electric shock; format: in vivo, male SPF mice (Chbb:NMRI); conditions: Mus musculus, oral
Description: The anticonvulsant activity was tested by measuring the inhibition of tonic extensor spasm in the back legs of male mice subjected to maximum electric shock.
The test animals used were male SPF mice (Chbb:NMRI) weighing from 20-26 gm which had access to standard food and drinking water up to one hour before the oral administration of the test substance.
The test was carried out using the method described by Swinyard, Brown and Goodman (J. Pharmacol. Exp. Ther. 106, 319, [1952]). The electric shock apparatus was constructed in accordance with the specifications provided by Woodbury and Davenport (Arch. Int. Pharmacodyn. 92, 97, [1952]). The electrical stimuli were administered to the animals' temples above their eyes, through steel ball electrodes covered with chamois and moistened with 0.9% NaCl solution. The stimuli were administered using alternating current, 50 Hz and 50 mA, with a duration of 0.2 sec.
The substance to be tested was suspended in 1% tylose mucilage and administered orally in a volume of 0.1 ml/10 gm body weight of the mice, each dosage being administered to 10 mice. The animals were given the shocks 30, 150 and 300 minutes after the administration of the test substance, and the ED50 values were determined graphically or by using the method of Litchfield and Wilcoxon (J. Pharmacol. Exp. Ther. 96, 99, [1949]) from the dosage which protects 50% of the animals from the tonic extension spasm of the rear extremities.

[2] = Acute toxicity in the rat, p.o.; format: in vivo; conditions: in vivo; for mortality at 336 h: N=10, read-out: Animals which died in 14 days, %
Description: (§1) Acute toxicity in the rat, compound A, p.o.

rat = assay: Acute toxicity in the rat, p.o.; format: in vivo; conditions: for Animals which died in 14 days: N=10
Description: as §1

[3] = test system: fatty and cartilaginous tissue (kidney fat and sternum); assay: Tests for yellow coloration of fatty and cartilaginous tissue in the rat; format: in vivo, male rats, Chbb:THOM (SPF)
Description: The yellow coloration of fatty and cartilaginous tissue following the oral administration of 50 and 400 mg/kg of compound E and compound A once a day over a period of 51/2 weeks was investigated. The compounds were homogeneously suspended in 1.5% tylose by several hours' stirring. The compounds were administered through an esophageal tube. The volume administered was about 1.4 ml. 9 to 11 male rats [of the Chbb:THOM (SPF) strain] with a body weight of 263±10 gm were used for each dose. At different times, animals were taken from the four treated groups and one control group and the kidney fat and sternum were removed after the animal had been bled from the abdominal aorta.

[4] = test system: tonic extensor spasms in the back legs of male rats subjected to maximum electric shock; assay: Anticonvulsant activity in rats: inhibition of tonic extensor spasms after maximum electric shock; format: in vivo, male SPF rats (Chbb:THOM); conditions: for % protected / animals protected: N=6, one hour
Description: The anticonvulsant activity was tested by measuring the inhibition of tonic extensor spasms in the back legs of male rats subjected to maximum electric shock.
The test animals used were male SPF rats (Chbb:THOM) weighing from 100-120 gm which had access to standard food and drinking water up to one hour before the oral administration of the test substance.
The test was carried out using the method described by Swinyard, Brown and Goodman (J. Pharmacol. Exp. Ther. 106, 319, [1952]). The electric shock apparatus was constructed in accordance with the specifications provided by Woodbury and Davenport (Arch. Int. Pharmacodyn. 92, 97 [1952]). The electrical stimuli were applied to the temples above the eyes, using moistened steel ball electrodes. The parameters of the stimuli were as follows: alternating current 50 Hz, 50 mA, duration of stimulus 0.2 sec. In all the control animals, clonic and then tonic extension spasm of the extremities occurred; the latter can be prevented by means of effective anticonvulsant agents.
The substance to be tested was suspended in 2% tylose mucilage and administered orally, in a volume of 1 ml/100 gm body weight of the rat, in dosages of 1.56, 3.125, 6.25 and 12.5 mg/kg, each dose being administered to 6 rats. One hour later, the animals were subjected to electric shock and the ED50 was calculated as the dosage which protected 50% of the animals against tonic extension spasms in the rear extremities, with confidence limits for a 5% probability of error.

[5] = Approximate acute toxicity in mice, p.o.; format: in vivo; conditions: in vivo; mouse, oral, 14 days
Description: (§2) Approximate acute toxicity in mice, compound A, p.o.

mice = assay: Approximate acute toxicity in mice, p.o.; format: in vivo; conditions: for Number of animals which died in 14 days: mice
Description: as §2

[6] = test system: fatty and cartilaginous tissue (kidney fat and sternum); conditions: known compound, general statement; cited from earlier work
[7] = 0.5 h, shock 30 minutes after administration
[8] = 2.5 h, shock 150 minutes after administration
[9] = 5 h, shock 300 minutes after administration
[10] = 50 mg/kg oral once a day, 17 days
[11] = 50 mg/kg oral once a day, 36 days
[12] = 50 mg/kg oral once a day, 38 days
[13] = 50 mg/kg oral once a day, 39 days
[14] = 400 mg/kg oral once a day, 2 days
[15] = 400 mg/kg oral once a day, 4 days
[16] = 400 mg/kg oral once a day, 9 days
[17] = 400 mg/kg oral once a day, 17 days
[18] = 400 mg/kg oral once a day, 36 days
[19] = 400 mg/kg oral once a day, 38 days
[20] = 400 mg/kg oral once a day, 39 days

SMILES: N/C(=C1\C(=O)c2ccccc2[S+]1[O-])c1ccccc1Cl (centres unmarked) [B, (E)-2-[(amino)-2-chlorophenylmethylene]-benzo[b]thiophen-3(2H)-one-1-oxide]
ED50 [1, 7]: 8.1 mg/kg
ED50 [1, 8]: 7.4 mg/kg
ED50 [1, 9]: 8.3 mg/kg

SMILES: CCN/C(=C1\C(=O)c2ccccc2[S+]1[O-])c1ccccc1 (centres unmarked) [C, (E)-2-[(ethylamino)phenylmethylene]-benzo[b]thiophen-3(2H)-one-1-oxide]
ED50 [1, 7]: 17.1 mg/kg
ED50 [1, 8]: 61 mg/kg
ED50 [1, 9]: 93.9 mg/kg

SMILES: N/C(=C1\C(=O)c2ccccc2[S+]1[O-])c1ccccc1 (centres unmarked) [Compound A, (E)-2-[(amino)phenylmethylene]-benzo[b]thiophen-3(2H)-one-1-oxide]
LD50 at 336 h ([2]; oral, 14 days, read-out: LD50 (confidence limits, p≤0.05)): 2600 mg/kg
mortality at 336 h ([2]; po, 1000 mg/kg p.o.): 0%
mortality at 336 h ([2]; po, 2000 mg/kg p.o.): 40%
mortality at 336 h ([2]; po, 4000 mg/kg p.o.): 70%
therapeutic index (LD50/ED50) ([2]; po, LD50 / ED50, read-out: average toxic dose relative to average therapeutic dose): 800
Animals which died in 14 days (rat; 1000 mg/kg p.o.): 0 animals
Animals which died in 14 days (rat; 2000 mg/kg p.o.): 4 animals
Animals which died in 14 days (rat; 4000 mg/kg p.o.): 7 animals
toxic effects (rat; in vivo, po): only had toxic effects in very large dosages
ED50 [1, 7]: 12.5 mg/kg
ED50 [1, 8]: 35 mg/kg
ED50 [1, 9]: 88 mg/kg
Number of animals with yellow kidney fat and sternum (number of animals dissected in brackets) [3, 10]: 0 (1) animals
Number of animals with yellow kidney fat and sternum (number of animals dissected in brackets) [3, 11]: 0 (1) animals
Number of animals with yellow kidney fat and sternum (number of animals dissected in brackets) [3, 12]: 0 (1) animals
Number of animals with yellow kidney fat and sternum (number of animals dissected in brackets) [3, 13]: 0 (6) animals
Number of animals with yellow kidney fat and sternum (number of animals dissected in brackets) [3, 14]: 0 (1) animals
Number of animals with yellow kidney fat and sternum (number of animals dissected in brackets) [3, 15]: 0 (1) animals
Number of animals with yellow kidney fat and sternum (number of animals dissected in brackets) [3, 16]: 0 (1) animals
Number of animals with yellow kidney fat and sternum (number of animals dissected in brackets) [3, 17]: 0 (1) animals
Number of animals with yellow kidney fat and sternum (number of animals dissected in brackets) [3, 18]: 0 (1) animals
Number of animals with yellow kidney fat and sternum (number of animals dissected in brackets) [3, 19]: 0 (1) animals
Number of animals with yellow kidney fat and sternum (number of animals dissected in brackets) [3, 20]: 0 (2) animals
% protected ([4]; 1.56 mg/kg p.o.): 0%
animals protected ([4]; 1.56 mg/kg p.o.): 0 animals
% protected ([4]; 3.125 mg/kg p.o.): 67%
animals protected ([4]; 3.125 mg/kg p.o.): 4 animals
% protected ([4]; 6.25 mg/kg p.o.): 83%
animals protected ([4]; 6.25 mg/kg p.o.): 5 animals
% protected ([4]; 12.5 mg/kg p.o.): 100%
animals protected ([4]; 12.5 mg/kg p.o.): 6 animals
ED50 ([4]; Rattus norvegicus, 1 h, oral, one hour, read-out: ED50 (confidence limits, p≤0.05)): 3.25 mg/kg
LD50 at 336 h [5]: > 4000 mg/kg
Number of animals which died in 14 days (mice; 500 mg/kg p.o., N=10): 0 animals
Number of animals which died in 14 days (mice; 1000 mg/kg p.o., N=16): 1 animals
Number of animals which died in 14 days (mice; 1410 mg/kg p.o., N=10): 0 animals
Number of animals which died in 14 days (mice; 2000 mg/kg p.o., N=10): 2 animals
Number of animals which died in 14 days (mice; 4000 mg/kg p.o., N=10): 1 animals
tolerance (mice; mouse, in vivo, po): well tolerated

Number of animals with yellow kidney fat and sternum (number of animals dissected in brackets) [3, 10]: 0 (1) animals
Number of animals with yellow kidney fat and sternum (number of animals dissected in brackets) [3, 11]: 0 (1) animals
Number of animals with yellow kidney fat and sternum (number of animals dissected in brackets) [3, 12]: 0 (1) animals
Number of animals with yellow kidney fat and sternum (number of animals dissected in brackets) [3, 13]: 0 (6) animals
Number of animals with yellow kidney fat and sternum (number of animals dissected in brackets) [3, 14]: 0 (1) animals
Number of animals with yellow kidney fat and sternum (number of animals dissected in brackets) [3, 15]: 0 (1) animals
Number of animals with yellow kidney fat and sternum (number of animals dissected in brackets) [3, 16]: 0 (1) animals
Number of animals with yellow kidney fat and sternum (number of animals dissected in brackets) [3, 17]: 1 (1) animals
degree of yellow coloration of kidney fat and sternum [3, 17]: very slight
Number of animals with yellow kidney fat and sternum (number of animals dissected in brackets) [3, 18]: 1 (1) animals
degree of yellow coloration of kidney fat and sternum [3, 18]: marked
Number of animals with yellow kidney fat and sternum (number of animals dissected in brackets) [3, 19]: 1 (1) animals
degree of yellow coloration of kidney fat and sternum [3, 19]: marked
Number of animals with yellow kidney fat and sternum (number of animals dissected in brackets) [3, 20]: 5 (5) animals
degree of yellow coloration of kidney fat and sternum [3, 20]: marked
yellow coloration of the kidney fat and sternum ([3]; 400 mg/kg, from the 17th day p.a.): slight at first but became marked later
SMILES: N/C(=C1/Sc2ccccc2C1=O)c1ccccc1 [Compound E, (E)-2-[(amino)phenylmethylene]-benzo[b]thiophen-3(2H)-one]
undesirable side effect: yellow coloration of fatty and cartilaginous tissue [6]: strong yellow coloration
